We go through 94 compounds from PubChem BioAssay AID463229 (Broad Institute, 2010).

This experiment deals with INS-1E rat beta cells, no cytokines, CellTiter-Glo ATP, 48 h. Briefly: ATP level change in INS-1E without cytokines, dose response, counter-screen for beta-cell apoptosis protection project, INS-1E rat cells, ATP luminescence, cherry pick (AID 463229). (The purpose of a counterscreen is to sort out artefacts and off-target activity.)
Regarding `O=[N+]([O-])c1ccc(-c2nc3ccc([N+](=O)[O-])cc3[nH]2)cc1`, the AC50 is 6.93 µM.

In the case of `O=C(NNC(=O)C12CC3CC(CC(C3)C1)C2)c1ccccn1`, the AC50 is 12.7 µM.

Consider `Oc1ccc(Nc2nc(-c3ccc4ccccc4c3)cs2)cc1`, for which the AC50 was 7.98 µM.

`NC(N)=N/N=C/c1ccc(OCc2ccccc2)cc1`: the AC50 was 14.7 µM.

As for `COc1ccc(C(=O)N2CCN(c3ccc([N+](=O)[O-])c(NCCc4ccc(OC)c(OC)c4)c3)CC2)cc1`, the AC50 is 3.46 µM.

`CC(=O)NC(c1cc(Cl)c2cccnc2c1O)C1CC1` (centres undefined): the AC50 is 7.49 µM.

As to `COc1ccc(Nc2nc(N3CCCCC3)c3ccccc3n2)cc1`, the AC50 was 12 µM.

On to `CNC(=O)c1sc(N2N=C3/C(=C/c4ccccc4)CCCC3C2c2ccccc2)nc1C` (centres undefined), for which the AC50 is 5.11 µM.

In the case of `COc1cccc(/C=N/NC(=O)c2cc3cc([N+](=O)[O-])ccc3s2)c1O`, the AC50 was 7.08 µM.

As for `CCCCOc1cc(NCc2ccccc2)c2ncn(C(C)C)c2c1`, the AC50 was 7.26 µM.

On to `OC(c1cc(-c2ccc(C(F)(F)F)cc2)nc(C(F)(F)F)c1)C1CCCCN1` (centres undefined), for which the AC50 was 6.81 µM.

For the compound `O=C1/C(=C/c2cccnc2)CCC/C1=C\c1cccnc1`, the AC50 was 6.89 µM.

Turning to `N#CC(C#N)=C1C=CC=CN1/C(=C\c1ccco1)C(=O)c1ccc(Br)cc1`, the AC50 was 8.57 µM.

Consider `Cc1nn(S(=O)(=O)c2ccc(Cl)cc2)c(C)c1Sc1ccc([N+](=O)[O-])cc1`, for which the AC50 was 7.69 µM.

As to `COc1ccc(C(CCN2CCCCC2)c2c(OC)cc(OC)c3c(-c4ccccc4)cc(=O)oc23)cc1` (centres undefined), the AC50 was 14.1 µM.

In the case of `CNC[C@H](Cc1ccccc1)NC[C@@H](Cc1cccc2ccccc12)NCCc1ccc(C)cc1`, the AC50 was 7.64 µM.

Consider `O=C(c1ccco1)N1N=C(c2ccc(Br)cc2)CC1c1ccco1` (centres undefined), for which the AC50 was 24.2 µM.

As to `CCOC(=O)c1cnc(-n2nc(C)cc2C)nc1NNc1nc(-c2ccccc2)cc(-c2ccccc2)n1`, the AC50 is 4.09 µM.

With `O=C(NNC(=O)c1ccccc1O)c1ccc(Cl)c(S(=O)(=O)N2CCc3ccccc32)c1`, the AC50 is 7.82 µM.

For the compound `Cc1cc(-n2c(SCC(=O)Nc3ccc(F)c(F)c3)nc3n[nH]c(C)c3c2=N)ccc1Cl`, the AC50 is 5.84 µM.

With `COc1ccc(C(=O)N/N=C/c2cc(Br)ccc2O)cc1OC`, the AC50 was 7.2 µM.

In the case of `Cc1ccc(C)c(NC(=O)/C(C#N)=C/c2cn(CC(=O)NCc3ccco3)c3ccccc23)c1`, the AC50 was 5.47 µM.

As to `Cc1ccc(C(=O)C[n+]2cc(-c3ccc(C)cc3)n3c2CCCCC3)cc1`, the AC50 is 1.4 µM.

As for `Cn1c(=O)[nH]c(=O)c2c1nc(N1CCN(C(c3ccccc3)c3ccccc3)CC1)n2CCO`, the AC50 is 10.8 µM.

Take `CCN(CC)c1ccc(/C=N/N(c2ccccc2)c2ccccc2)c(O)c1`: the half-maximal activity concentration (AC50) is 4.58 µM.

As to `CCn1c(-c2ccc(N(C)C)cc2)nc2ccccc21`, the AC50 was 3.75 µM.

On to `O=C1C=C(Nc2ccccc2O)c2ccccc2C1=O`, for which the AC50 was 8.04 µM.

`COc1ccc2c(c1)c(/C=N/Nc1nc3ccccc3[nH]1)c(C)n2C`: the concentration at half-maximal activity (AC50) was 14.7 µM.

`COc1ccccc1N1C(C)=CC(=C(C#N)c2nc3ccccc3s2)C=C1C`: the AC50 is 8.66 µM.

For `Cc1c(Cl)c([N+](=O)[O-])nn1Cc1ccc(C(=O)N/N=C\c2cc(Cl)ccc2O)o1`, the AC50 is 6.95 µM.

Turning to `Oc1c(CN2CCOCC2)cc(COCc2ccccc2)c2cccnc12`, the AC50 is 8.19 µM.

`COc1ccc(-c2c[n+](CC(=O)OC3CC(C)CCC3C(C)C)c3n2CCC3)cc1` (centres undefined): the AC50 was 1.87 µM.

For `CCCCCCSc1cc(-c2nc3ccc(C)cn3c2NCCCC)ccc1OC`, the AC50 was 6.79 µM.

Turning to `C/C(=N\Nc1nc2ccccc2[nH]1)c1ccccn1`, the AC50 was 0.56 µM.

As to `O=C(NCc1cccnc1)c1ccc(NC(=O)c2ccc([N+](=O)[O-])cc2)cc1`, the concentration at half-maximal activity (AC50) was 0.215 µM.

In the case of `Cc1cccc(NC(=O)c2nc(S(=O)(=O)Cc3ccccc3)ncc2Cl)c1`, the AC50 is 15.8 µM.

As for `O=C(Nc1nc(-c2ccccn2)cs1)c1cc(Cl)ccc1[N+](=O)[O-]`, the AC50 is 4.6 µM.

For `O=C(CCSc1nc2ccccc2s1)N/N=C/c1c(O)ccc2ccccc12`, the AC50 is 5.5 µM.

For `O=C(N/N=C/c1cc(Br)ccc1OC(=O)c1ccc(Br)cc1)c1ccncc1`, the AC50 is 6.01 µM.

Consider `Cc1oc2c(c1C(=O)N1CCC(C)CC1)C(=O)c1ccccc1C2=O`, for which the AC50 is 10.8 µM.

Consider `Cc1cc(C(=O)N/N=C/c2cc(Br)ccc2OC(=O)c2ccccc2)n[nH]1`, for which the AC50 was 7.44 µM.

Consider `C/C(=N\NC(=O)c1ccc(F)cc1)c1ccccn1`, for which the AC50 was 2.35 µM.

On to `O=C(N/N=C/c1cccnc1)c1ccc(NC(=O)C(c2ccccc2)c2ccccc2)cc1`, for which the AC50 is 0.848 µM.

For `CN(C)CCCn1cnc2c(c1=N)C(c1ccccc1)c1ccc3ccccc3c1O2` (centres undefined), the AC50 was 7.08 µM.

For the compound `COc1ccc(/C(C)=N/NC(=O)c2cccc(S(=O)(=O)N3CCCC3)c2)c(O)c1`, the AC50 was 3.8 µM.

Turning to `CC1=C/C(=N\OS(=O)(=O)c2ccccc2)C(C)=CC1=O`, the AC50 was 1.52 µM.

Turning to `O=c1nccc(N/N=C/c2ccccc2O)[nH]1`, the AC50 is 23.3 µM.

For `COC(=O)C1=C(C)N(Cc2ccccc2)C(=NCc2ccccc2)N[C@H]1c1cccc(C(F)(F)F)c1`, the AC50 is 14.1 µM.

Take `O=[N+]([O-])c1ccc(S(=O)(=O)c2ccccc2)nc1`: the AC50 was 10.6 µM.

For `COc1cccc(N=Nc2ccc3cccnc3c2O)c1`, the AC50 was 6.8 µM.

For `Oc1cccc(/C=N/NC(=S)Nc2cccnc2)c1O`, the concentration at half-maximal activity (AC50) is 8.6 µM.

As for `Cc1cc(C)c(S(=O)(=O)/N=C2\C=C(Nc3ccc(C(=O)O)cc3)C(=O)c3ccccc32)c(C)c1`, the AC50 was 5.39 µM.

As to `Clc1ccc(-c2cc(-c3nnc4n3CCCCC4)c3ccccc3n2)cc1`, the half-maximal activity concentration (AC50) is 4.91 µM.

For `CCOC(=O)N1CCN(S(=O)(=O)c2ccc(C(=O)NNc3nc4cc(C)cc(C)c4s3)cc2)CC1`, the AC50 was 6.01 µM.

Regarding `COc1ccc(S(=O)(=O)/N=C2\C=C(Nc3ccc(O)cc3)C(=O)c3ccccc32)cc1`, the AC50 is 1.65 µM.

Turning to `COc1ccc2nc(C)cc(N/N=C/c3ccc(F)cc3)c2c1`, the concentration at half-maximal activity (AC50) was 7.11 µM.

For the compound `CC1Cc2cc(S(=O)(=O)N3CCC(C(=O)N4CCN(c5ccccc5F)CC4)CC3)ccc2N1C(=O)C1CC1` (centres undefined), the half-maximal activity concentration (AC50) is 8 µM.

As for `O=C(NNC(=S)Nc1ccc(Cl)c(Cl)c1)c1ccccn1`, the AC50 is 4.35 µM.

With `Cc1ccc2c(c1)nnn2C1CCN(S(=O)(=O)c2ccc(C(=O)N3C(C)CCCC3C)cc2)CC1` (centres undefined), the AC50 was 7.75 µM.

Consider `Cc1ccc(S(=O)(=O)Nc2cc(Cl)c(O)c3ncccc23)cc1`, for which the half-maximal activity concentration (AC50) was 4.38 µM.

Take `COc1ccc(C(NC(C)=O)c2cc(Cl)c3cccnc3c2O)cc1` (centres undefined): the AC50 was 7.34 µM.

With `c1ccc(-c2nc(N3CCCCCC3)c3ccccc3n2)nc1`, the AC50 is 6.8 µM.

`Cc1ccc2nc(-c3ccccn3)c(NC3CCCC3)n2c1`: the AC50 is 16.6 µM.

`CCOC(=O)N1CCN(c2ncnc3c2[nH]c2ccc(F)cc23)CC1`: the AC50 was 6.43 µM.

Turning to `O=C(COc1ccccc1-c1ccccc1)N/N=C/c1ccc2ccccc2c1`, the AC50 was 8.67 µM.

`O=S(=O)([N-]c1nc2ccccc2nc1-[n+]1ccc(Cc2ccccc2)cc1)c1ccc(Br)s1`: the AC50 is 12.9 µM.

Take `O=C(Nc1ccc(Cl)cc1)Nc1csc([N+](=O)[O-])c1`: the AC50 is 7.65 µM.

For the compound `C/C(=N\NC(=O)c1ccccc1NC(=O)c1ccc(Cl)cc1)c1ccncc1`, the AC50 was 0.967 µM.

Consider `O=C(OCn1ncc(Br)c(Br)c1=O)c1ccc(F)cc1`, for which the AC50 was 5.09 µM.

`COc1ccc(-c2c[n+]3c(n2-c2ccccc2)CCCCC3)cc1`: the AC50 was 2.35 µM.

As to `CCCC(C)C(=O)Nc1nc(C)c(-c2csc(Nc3ccc(Cl)cc3)n2)s1` (centres undefined), the AC50 was 3.71 µM.

`O=C(NC(Nc1nc2ccc([N+](=O)[O-])cc2s1)(C(F)(F)F)C(F)(F)F)c1ccccc1`: the AC50 is 0.367 µM.

For `CCOc1cccc(/C=N/NC(=O)c2cc(C3CC3)[nH]n2)c1O`, the AC50 is 7.83 µM.

For `O=C(C#Cc1ccccc1)Nc1cccc(F)c1`, the AC50 was 11.8 µM.

In the case of `Cn1cc(/C=C/c2cc[n+](C)cc2)c2cc(Cl)ccc21`, the half-maximal activity concentration (AC50) is 4.85 µM.

As for `c1ccc(CNc2c(-c3cccc(SC4CCCCC4)c3)nc3ccccn23)cc1`, the AC50 was 2.98 µM.

Turning to `C#CCOCCOCCOCCNc1nc(N2CCN(C(=O)CCCCCCCCCCNC(=O)Cn3cc(CCCCCN)nn3)CC2)nc(N2CCN(C(=O)CCCCCCCCCCNC(=O)[C@H]([C@@H](C)CC)n3cc(CCCCN=C(N)N)nn3)CC2)n1`, the AC50 is 8.89 µM.

Turning to `CCCCCCCCNC(C)C(O)c1ccc(SC(C)C)cc1` (centres undefined), the AC50 was 10.5 µM.

In the case of `CCS(=O)(=O)c1ncc(Cl)c(C(=O)Nc2ccc(S(=O)(=O)N3CCC(C)CC3)cc2)n1`, the AC50 was 7.4 µM.

Turning to `O=C(COc1ccc(Cl)cc1)Nc1ccc(C(=O)NCc2cccnc2)cc1`, the AC50 was 0.236 µM.

In the case of `CC(NCC(O)COCCC12CC3CC(CC(C3)C1)C2)c1ccccc1` (centres undefined), the AC50 is 8.29 µM.

Take `O=C(NC1=C(Nc2ccc(Cl)cc2)C(=O)c2ccccc2C1=O)c1ccccc1`: the AC50 is 21.8 µM.

As to `Cc1nc(N2CCN(C(=O)c3ccco3)CC2)c2c3c(sc2n1)CC(C)CC3` (centres undefined), the AC50 was 5.51 µM.

`COc1ccc(OC)c(NC(=O)CN(Cc2ccc(F)cc2)C2CCCCC2)c1`: the AC50 was 4.49 µM.

As to `CCOc1cc(/C=N/NC(=O)c2cc(-c3cccc(OC)c3)nc3ccccc23)ccc1O`, the half-maximal activity concentration (AC50) is 6.59 µM.

With `CCc1nnc(NC(=O)c2cccc(C(=O)Nc3nnc(CC)s3)n2)s1`, the AC50 is 2.98 µM.

As to `COc1ccc(-c2nc3ccc(C)cn3c2NCc2ccccc2)cc1SC1CCCCC1`, the AC50 was 2.34 µM.

Consider `CCOC(=O)c1cnc(-n2nc(C)cc2C)nc1Nc1ccc(O)cc1`, for which the AC50 is 1.41 µM.

As for `Cc1cc(C(=O)N/N=C/c2cc(N=Nc3ccccc3)ccc2O)n[nH]1`, the half-maximal activity concentration (AC50) is 3.23 µM.

Regarding `O=C(Nc1ccc(OC(F)F)cc1)Nc1cccc(C(F)(F)F)c1`, the AC50 is 7.65 µM.

For `O=[N+]([O-])c1cc(Cl)cc(/C=N\Nc2ccccn2)c1O`, the AC50 was 2.55 µM.

For `Cc1ccc(Nc2cc(C)nn2-c2nc(C)cc(=O)[nH]2)cc1`, the AC50 was 1.57 µM.

Regarding `C/C(=N\NC(=O)c1cc(C)nc2ccccc12)c1ccccn1`, the AC50 is 2.83 µM.

Consider `N#Cc1c(N2CCCCC2)nc(N2CCCCC2)c2c1CCN(Cc1ccccc1)C2`, for which the AC50 was 13.8 µM.

The AC50 is the concentration at which the activity in the assay is half-maximal.
